Laboratory results taken from ChEMBL document CHEMBL4017494, “Structural Basis of Wee Kinases Functionality and Inactivation by Diverse Small Molecule Inhibitors” (J Med Chem, 2017).
The source made the active and inactive calls. The calls are words filed in the database; no cut-off is given here.

Assays:
MDA-MB-231 = experiment: Antiproliferative activity against human MDA-MB-231 cells measured after 72 hrs by CellTiter-Blue assay; type: functional, cell-based; settings: MDA-MB-231, 72 h
[1] = target: T1, Wee1-like protein kinase 2 (Homo sapiens, UniProt P0C1S8)
Target sequence in this assay (P0C1S8 whole entry, looked up, the tested form may be a part): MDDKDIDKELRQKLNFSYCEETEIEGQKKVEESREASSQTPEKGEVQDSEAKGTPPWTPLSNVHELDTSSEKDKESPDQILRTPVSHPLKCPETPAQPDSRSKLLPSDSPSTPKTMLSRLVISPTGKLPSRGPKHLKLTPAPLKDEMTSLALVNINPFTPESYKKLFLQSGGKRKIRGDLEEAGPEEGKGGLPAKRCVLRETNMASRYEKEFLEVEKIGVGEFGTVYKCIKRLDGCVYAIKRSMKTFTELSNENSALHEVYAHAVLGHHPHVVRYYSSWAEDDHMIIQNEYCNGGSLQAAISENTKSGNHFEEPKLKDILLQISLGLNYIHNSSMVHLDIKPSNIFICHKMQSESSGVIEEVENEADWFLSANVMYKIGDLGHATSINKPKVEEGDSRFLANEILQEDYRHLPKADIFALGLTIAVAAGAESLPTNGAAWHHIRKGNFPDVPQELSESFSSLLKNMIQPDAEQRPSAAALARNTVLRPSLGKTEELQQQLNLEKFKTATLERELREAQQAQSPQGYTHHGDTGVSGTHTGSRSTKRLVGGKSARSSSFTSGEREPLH

[2] = target: T1, Wee1-like protein kinase 2; experiment: Binding affinity to recombinant human N-terminal His6-tagged Wee2 kinase domain (202 to 492 residues) expressed in Escherichia coli BL21 (DE3) by isothermal titration calorimetry
Target sequence in this assay (P0C1S8 whole entry, the tested form may be a part): as the sequence (P0C1S8 whole entry, looked up, the tested form may be a part) above

[3] = target: T2, Membrane-associated tyrosine- and threonine-specific cdc2-inhibitory kinase (Homo sapiens, UniProt Q99640); experiment: Binding affinity to recombinant human N-terminal His6-tagged Myt1 kinase domain (75 to 361 residues) by isothermal titration calorimetry
T2 sequence (Q99640 whole entry): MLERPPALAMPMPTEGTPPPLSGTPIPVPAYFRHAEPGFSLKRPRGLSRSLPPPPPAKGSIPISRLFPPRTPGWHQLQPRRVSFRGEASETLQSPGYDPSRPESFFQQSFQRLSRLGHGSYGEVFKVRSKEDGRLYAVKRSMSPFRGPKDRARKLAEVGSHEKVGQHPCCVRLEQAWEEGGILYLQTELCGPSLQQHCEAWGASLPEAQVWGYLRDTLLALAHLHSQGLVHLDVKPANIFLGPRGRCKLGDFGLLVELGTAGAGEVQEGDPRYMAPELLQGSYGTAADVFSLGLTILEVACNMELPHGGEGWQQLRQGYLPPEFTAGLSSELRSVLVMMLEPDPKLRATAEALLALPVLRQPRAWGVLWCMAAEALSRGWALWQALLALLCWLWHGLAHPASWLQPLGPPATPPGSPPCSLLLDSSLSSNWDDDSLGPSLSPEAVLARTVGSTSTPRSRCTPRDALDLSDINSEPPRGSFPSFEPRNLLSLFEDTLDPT

HEK-293T = experiment: Antiproliferative activity against HEK293T cells measured after 72 hrs by CellTiter-Blue assay; type: cell-based; settings: Homo sapiens
Wee1-like protein kinase [4] = target: T3, Wee1-like protein kinase (Homo sapiens, UniProt P30291)
Target sequence in this assay (P30291 whole entry, looked up): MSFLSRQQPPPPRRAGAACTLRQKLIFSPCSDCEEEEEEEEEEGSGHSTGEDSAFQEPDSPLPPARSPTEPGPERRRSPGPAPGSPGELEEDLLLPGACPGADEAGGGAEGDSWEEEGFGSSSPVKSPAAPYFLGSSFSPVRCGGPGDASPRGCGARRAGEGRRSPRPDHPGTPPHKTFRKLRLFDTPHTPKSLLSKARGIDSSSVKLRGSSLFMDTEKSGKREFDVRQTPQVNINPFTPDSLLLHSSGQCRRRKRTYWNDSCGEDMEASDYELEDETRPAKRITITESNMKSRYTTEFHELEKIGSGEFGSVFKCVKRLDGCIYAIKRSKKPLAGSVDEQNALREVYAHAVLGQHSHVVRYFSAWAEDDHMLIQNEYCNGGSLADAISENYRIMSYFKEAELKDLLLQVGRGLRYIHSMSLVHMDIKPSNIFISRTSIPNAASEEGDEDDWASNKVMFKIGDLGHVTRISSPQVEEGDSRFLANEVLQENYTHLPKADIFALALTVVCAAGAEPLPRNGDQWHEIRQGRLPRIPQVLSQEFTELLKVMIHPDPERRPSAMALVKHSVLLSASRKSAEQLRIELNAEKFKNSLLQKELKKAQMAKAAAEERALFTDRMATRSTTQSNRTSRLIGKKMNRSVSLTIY

[5] = target: T4, Membrane-associated tyrosine- and threonine-specific cdc2-inhibitory kinase (Homo sapiens) (UniProt Q99640)
T4 sequence (whole entry): T2 sequence (Q99640 whole entry)

MM1.S = experiment: Antiproliferative activity against human MM1S cells measured after 72 hrs by CellTiter-Blue assay; type: functional, cell-based
Wee1-like protein kinase [6] = target: T3, Wee1-like protein kinase; experiment: Binding affinity to recombinant human N-terminal His6-tagged Wee1 kinase domain (291 to 575 residues) expressed in Escherichia coli BL21 (DE3) by isothermal titration calorimetry
Target sequence in this assay (P30291 whole entry): as the sequence (P30291 whole entry, looked up) above

Wee1-like protein kinase [7] = target: T3, Wee1-like protein kinase; settings: 0.1 to 10 uM
Target sequence in this assay (P30291 whole entry, looked up): as above

Wee1-like protein kinase [8] = target: T3, Wee1-like protein kinase; settings: at 0.1 to 10 µM
Target sequence in this assay (P30291 whole entry, looked up): as above

Wee1-like protein kinase [9] = target: T3, Wee1-like protein kinase; experiment: Inhibition of Wee1 in HEK293T cells assessed as decrease in CDK1 phosphorylation at Tyr15 at 0.01 to 10 uM after 6 hrs by Western blot method; type: cell-based
Target sequence in this assay (P30291 whole entry): as the sequence (P30291 whole entry, looked up) above

Wee1-like protein kinase [10] = target: T3, Wee1-like protein kinase; experiment: Inhibition of Wee1 in HEK293T cells assessed as decrease in CDK1 phosphorylation at Tyr15 at 0.1 to 10 uM after 6 hrs by Western blot method; type: cell-based
Target sequence in this assay (P30291 whole entry): as the sequence (P30291 whole entry, looked up) above

[11] = target: T1, Wee1-like protein kinase 2; experiment: Binding affinity to recombinant human full-length N-terminal His8-tagged Wee2 (1 to 567 residues) expressed in human Expi293F cells assessed as dessociation constant by quantitative real-time PCR method; type: cell-based
Target sequence in this assay (P0C1S8 whole entry, the tested form may be a part): as the sequence (P0C1S8 whole entry, looked up, the tested form may be a part) above

[12] = target: T5, Serine/threonine-protein kinase PLK1 (Homo sapiens, UniProt P53350); settings: 0.1 to 10 uM
T5 sequence (P53350 whole entry): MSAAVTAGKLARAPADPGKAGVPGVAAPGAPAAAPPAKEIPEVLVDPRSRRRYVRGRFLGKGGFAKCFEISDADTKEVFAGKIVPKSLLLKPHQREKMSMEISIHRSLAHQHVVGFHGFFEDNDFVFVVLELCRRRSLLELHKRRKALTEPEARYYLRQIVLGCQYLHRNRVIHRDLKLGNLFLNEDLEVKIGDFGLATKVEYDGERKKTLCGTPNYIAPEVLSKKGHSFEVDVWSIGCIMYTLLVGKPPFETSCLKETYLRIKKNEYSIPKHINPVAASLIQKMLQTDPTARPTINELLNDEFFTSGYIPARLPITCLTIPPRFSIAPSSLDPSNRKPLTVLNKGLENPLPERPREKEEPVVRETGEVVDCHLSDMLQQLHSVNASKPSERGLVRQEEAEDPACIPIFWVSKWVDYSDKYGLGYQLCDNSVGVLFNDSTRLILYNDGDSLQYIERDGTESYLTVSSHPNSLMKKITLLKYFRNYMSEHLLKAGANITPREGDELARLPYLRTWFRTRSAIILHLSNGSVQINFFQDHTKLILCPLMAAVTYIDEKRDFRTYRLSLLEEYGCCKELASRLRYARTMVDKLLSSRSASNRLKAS

[13] = Binding affinity to human FLT3 D835V-mutant assessed as dissociation constant by quantitative real-time PCR method
[14] = target: T5, Serine/threonine-protein kinase PLK1

| Compound | IC50 (MDA-MB-231) [nM] | ΔTm [1] [°C] | Kd ([2]; read-out: Kd) [nM] | Kd ([3]; read-out: Kd) [nM] | IC50 (HEK-293T) [nM] | ΔTm (Wee1-like protein kinase [4]) [°C] | ΔTm [5] [°C] | IC50 (MM1.S) [nM] | other results |
| --- | --- | --- | --- | --- | --- | --- | --- | --- | --- |
| COc1cc2c(Nc3cc(Cl)c(OC)c(Cl)c3)c(C#N)cnc2cc1OCCCN1CCN(C)CC1 | 1800 | 12.3 | 4.7 | 444 | 1600 | 10 | 3 | 3900 |  |
| CCOc1cc2ncc(C#N)c(Nc3ccc(F)c(Cl)c3)c2cc1NC(=O)/C=C/CN(C)C [PELITINIB] |  | 5.6 | 498 | 1100 |  |  | 2.4 |  |  |
| Cc1nc(Nc2ncc(C(=O)Nc3c(C)cccc3Cl)s2)cc(N2CCN(CCO)CC2)n1 |  | 9.2 |  |  |  |  |  |  |  |
| CN1CCN(CCOc2cc(OC3CCOCC3)c3c(Nc4c(Cl)ccc5c4OCO5)ncnc3c2)CC1 [SARACATINIB] |  | 0.65 |  |  |  | 1.2 | 2.1 |  | Kd [2]: Not Active; Kd (Wee1-like protein kinase [6]): Not Active |
| CCN(CC)CCOc1ccc(Nc2ncc3cc(-c4c(Cl)cccc4Cl)c(=O)n(C)c3n2)cc1 [PD-0166285] | 160 |  | 5 | 247 | 290 |  |  | 520 |  |
| CNC(=O)c1nn(C)c2c1C(C)(C)Cc1cnc(Nc3ccc(N4CCN(C)CC4)cc3)nc1-2 [MILCICLIB] |  | 11.5 | 26.6 | 990 |  | 13.4 | 3.6 |  | inhibition (Wee1-like protein kinase [7]): Dose-dependent effect; inhibition (Wee1-like protein kinase [8]): Dose-dependent effect; Kd (Wee1-like protein kinase [6]; read-out: Kd): 13.6 nM |
| C[C@@H](Oc1cc(-n2cnc3ccc(CN4CCN(C)CC4)cc32)sc1C(N)=O)c1ccccc1C(F)(F)F [GSK-461364] | 1 to 3.5 |  |  |  | 1 to 3.5 |  |  | 1 to 3.5 | inhibition (INH) (Wee1-like protein kinase [9]): Not Active; inhibition (Wee1-like protein kinase [8]): inactive |
| CC[C@@H]1C(=O)N(C)c2cnc(Nc3ccc(C(=O)NC4CCN(C)CC4)cc3OC)nc2N1C1CCCC1 [BI-2536] |  |  |  |  |  |  |  |  | inhibition (INH) (Wee1-like protein kinase [10]): Not Active |
| C=CCn1c(=O)c2cnc(Nc3ccc(N4CCN(C)CC4)cc3)nc2n1-c1cccc(C(C)(C)O)n1 [ADAVOSERTIB] | 260 | 11.6 | 27 |  | 290 | 15.4 | 3.3 | 310 | Kd [11]: 3.9 nM; inhibition [12]: Active; inhibition (INH) (Wee1-like protein kinase [10]): Active; Kd [13]: 7.5 nM; Kd [14]: 3 nM; inhibition (Wee1-like protein kinase [8]): Active |
| CC(=O)NCC(=O)N1[C@@H]2CC[C@H]1c1ccc(Nc3ncc(C(F)(F)F)c(NC4CCC4)n3)cc12 (single isomer, unassigned) [PF-03814735] |  | 8.5 | 128 |  |  | 7.9 | -0.1 |  | Kd [3]: Not Active; Kd (Wee1-like protein kinase [6]; read-out: Kd): 78.7 nM |
| COc1cc(Nc2c(C#N)cnc3cc(OCCCN4CCN(C)CC4)c(OC)cc23)c(Cl)cc1Cl |  |  |  |  |  |  | 3.9 |  |  |
